From patent US7217570B2, “Organotypic intestinal culture and methods of use thereof” (The Wistar Institute of Anatomy and Biology, priority 2001, dated 2007) come the findings set out here.

The test system of assay [1] is enteric epithelial cells. Put plainly: Growth factor modulation of organotypic culture in reduced or modified media (Example 2). In kind it is cell-based, human. The note with it: growth factor added individually to base medium (MCDB 201/L15, transferrin, antibiotics). As for the experimental part:
To determine the role of growth factors on proliferation of colonic epithelial cells, this growth medium was modified by changing combinations of growth factors and deleting serum. Keratinocyte growth factor (KGF, R&D Systems) at 20 ng/ml was also tested as part of 23 growth factor combinations. Total relative cell numbers of a specific type were counted as an average of all nuclei counts from a minimum of 3 randomly selected cross-sections of a reconstruct. Goblet cells were counted based on their typical morphology and positive Alcian staining in at least 3 randomly selected slides. Proliferation rates in % were established by counting the number of BrdU or Ki-67-positive nuclei per total epithelial cell nuclei of section. Apoptotic cells were counted in H&E-stained sections (Vagunda, V. et al. 2000 Anal. Quant. Cytol. Histol., 22:307–310). Apoptotic bodies and nuclei were determined according to the size and numbers of the fragments. Apoptosis was calculated as percentage of total nuclei per section (Kerr, J F. et al. 1972 Br. J. Cancer, 26:239–257) To define the role of critical growth factors supporting growth and differentiation of the enteric epithelial cells, an organotypic culture, such as that described in Example 1, was grown in medium in which the number of supplements was reduced. In other experiments, the growth factors, including insulin, EGF, SCF, ET-3, KGF, bFGF, or AMF were added individually to the base medium (MCDB 201/L15 medium with transferrin and antibiotics). In each case, epithelial cell proliferation was not supported in the organotypic culture. In another experiment, the organotypic cultures were prepared by seeding epithelial cells on the artificial stroma in complete medium C or medium L/S/E or medium L. Medium C contained transferrin, insulin, bFGF, EGF, ET-3, HGF, LIF, SCF, AMF, and 1% FCS as supplements. L/S/E medium contained transferrin, insulin, LIF, SCF, ET-3, EGF, and 1% FCS. L medium contained transferrin, insulin, LIF, EGF, and 1% FCS. Sections of the cultures were stained with H&E and Alcian blue after 12 hours (day 0) and 4 days. Values were generated SD of 5 fields from 2 independent experiments. […] The L/S/E-supplemented base medium (LIF, SCF, ET-3, EGF, insulin, and 1% FCS) induced formation by day 4 of highly disorganized structures of stratified and pseudostratified epithelial cells. The epithelium was hyperplastic with morphological atypia. In contrast to results obtained with complete growth medium, only the upper surface rather than the entire artificial stroma was covered with epithelium.

Assay [2] concerns colorectal carcinoma cell line HT29. Put plainly: Growth of carcinoma cell line on laminin substrates. In kind it is cell-based. Conditions: Laminin-2 compared to Laminin-1. The text has this:
Quantitative analysis of the growth fractions confirmed that the different laminins control growth and differentiation. […] Enteric epithelial cells spread similarly on substrates of Laminins-2 and —I bound to plastic of culture dishes.

Assay [3] concerns colonic epithelial cells. As to the kind of experiment: Coating of artificial stroma or plastic with extracellular matrix proteins (Example 3). Type of assay: cell-based, human. From the text:
Another embodiment of an organotypic culture prepared as described substantially as in Example 2, has an additional component. An extracellular matrix was applied to the organotypic cultures by coating the artificial stroma with matrix proteins Laminin-2 […] (Life Technologies, Rockville, Md.), Laminin-1 […] (Sigma), or Matrigel® gel matrix (Collaborative Research, Bedford, Mass.), which contains Laminin-1 and other matrix proteins, such as collagen IV and […] (Burgeson, R E., et al. 1994 Matrix Biol., 14:209–211 and Page, KC. et al. 1990 J. Biol. Reprod., 43:659–664). Fifty to 100 μl of base medium containing 20 ng/ml of laminins were added onto the surface of the artificial stroma for 60 minutes at 37° C. Matrigel® matrix was diluted 1:5 to 1:10 in base medium before use. After incubation, unbound laminins or Matrigel® matrix were removed by two washings with base medium. The organotypic cultures were incubated at 37° C. in 5% CO2 in growth medium, which was changed daily for 7 days, then three times per week for an additional 21 days. Growth and differentiation of colonic epithelium in growth medium was regulated by ECM components at the interface between the stroma and the epithelial layer. These ECM experiments were done in base medium, supplemented with LIF, SCF, ET3, EGF, insulin, and 1% FCS. […]

Assay [4] deals with colonic epithelial cells. As to the kind of experiment: Proliferation of organotypic colon cultures in LIF-supplemented base medium (BrdU, 3H-thymidine, cell numbers per area). In kind it is cell-based, human. As for the experimental part:
Colonic epithelial cells described above were seeded on top of collagen gels containing embedded fibroblasts described above in 0.4 ml of complete growth medium. After seeding onto the matrix of collagen type I with embedded fibroblasts, samples were incubated at 37° C. in 5% CO2 for 60–90 minutes in a low volume of medium (50–100 μl) to enhance attachment. The epithelial cells and clusters attached within 60 minutes. The wells were then filled with complete growth medium. Medium was changed daily for 10 days, then three times per week for an additional 21 days.
Proliferation of organotypic cultures was determined by adding bromodeoxyuridine (BrdU) to the medium according to the manufacturer's instructions (Amersham Pharmacia Biotech, Inc., Piscataway, N.J.). Thymidine incorporation was measured in cells, incubated with 1 μCi ^3H-thymidine/well for 18 hours before harvest and determination of radioactivity.
(§1) Cell numbers were determined per high-power field (0.11×0.18 mm) using 40× magnification as the mean (±SD) of 364 measurements. Constriction of collagen matrices was measured as the length of the longitudinal axis of collagen harvested on days 0.5, 4 and 10 (mean±SD of 32 measurements of 4 samples. Positive cells per area were counted in 12 consecutive fields per cross-section (mean±SD of 16 areas of 2 random cross-sections from 4 samples. Relative number of positive cells per area was expressed as mean±SD of positive/total cells from 16 areas of 2 random cross-sections for each sample. Statistical significance was tested using Student's t-test.

The subject of assay [5] is fibroblasts. Put plainly: Constriction of collagen matrix by embedded fibroblasts and fibroblast numbers. In kind it is cell-based, human. As for the experimental part:
Human smooth muscle cells HIAS119, kindly provided by Dr. E. Levine, The Wistar Institute, were isolated from large blood vessels and maintained in medium M199, supplemented with 10% FCS, 2 mM L-glutamine, and 50 μg/ml bovine hypothalamus extract (Oda, D. et al, 1998 In Vitro Cell. Dev. Biol. Anim., 34, 46–52). Fibroblasts at 8×10^5/ml were embedded in collagen type I (Organogenesis, Canton, Mass.) to a final concentration of 0.9 to 1.1 mg/ml in DMEM supplemented with 50 μM vitamin C (Sigma), 1.66 mM L-glutamine (GIBCO-BRL), and 1% FCS. The suspension was neutralized, pH 7.2, using 7.5% sodium bicarbonate. Chambered slides, Lab-Tek 8 wells (Nunc International, Rochester, N.Y.), were filled with 0.2 ml of the collagen and cell suspension. […]
as §1

For assay [6], the system named is colonic epithelial cells. As to the kind of experiment: Differentiated cells (goblet, enteroendocrine, carbonic anhydrase II) in organotypic colon cultures with LIF. In kind it is cell-based, human.
From the text: The organotypic cultures were characterized as follows. Harvested organotypic cultures were fixed in 1.5% paraformaldehyde and embedded in paraffin. For electron microscopy (EM), cultures were fixed in 4% glutaraldehyde. For histochemistry and immunohistochemistry, 5-μm thick sections were cut from the paraffin beds and stained with hematoxylin and eosin (H&E) or Alcian Blue using standard procedures.
Goblet cells were detected using Alcian Blue and EM. Enteroendocrine cells were identified by chromogranin A staining and EM. Immunohistochemical staining was done with monoclonal antibodies specific for: BrdU (Amersham), Ki67 (DAKO, Carpinteria, Calif.), α-smooth muscle actin (SMA) (Sigma), cytokeratin 19 (CK 19; antibody BA17 [33] kindly provided by Dr. J. Kovarik, Brno, Czech Rep.), chromogranin A (Novocastra, New Castle Upon Tyne, UK) and carbonic anhydrase II (The Binding Site Limited, Birmingham, UK). Immunohistochemistry was performed by standard techniques as described (Dai, C. Y. et al, 2000 Gastroenterology, 119, 929–942). Alkaline phosphatase activity of paraffin-embedded samples was detected using colorimetric substrate (AP Substrate Kit, SK 15100, Vector, Burlingame, Calif.).
as §1

Entries after “also recorded” stand apart in the source; their conditions may differ. Where no end group is shown, it is not given here.

As to stem cell factor [SCF], the epithelial cell proliferation entry in assay [1] is recorded as “not supported”.
The same measure, in the same setting: the value for basic fibroblast growth factor [bFGF] was “not supported”.
For the substance “Laminin-2: matrix protein Laminin-2 α2β1γ1 (Life Technologies)”, the “growth of HT29 cells” value in assay [2] is “better growth”. The “control of growth and differentiation of colonic epithelium” value in assay [3] (coating of artificial stroma, quantitative analysis of growth fractions) is “stimulated cell growth”. For the same substance, the “survival of epithelial cells by day 5” value in assay [3] (laminin bound to plastic of culture dishes) is “survived only with Laminin-2”.
leukemia inhibitory factor [LIF]: the 3H-thymidine incorporation result in assay [4] (BM+LIF compared with BM only, after 2 days) was “Significant stimulation”. Further, the “Growth of epithelial cells” value in assay [4] (LIF added to base medium, organotypic culture) is “significantly stimulated”. Also, the “number of colonic epithelial cells” value in assay [4] (LIF-containing base medium versus base medium) is on record as “significantly higher”. Also, the “numbers of BrdU-positive and total epithelial cells” value in assay [4] (LIF-stimulated cultures) is “significantly higher”. Moreover, in assay [5] (LIF in base medium), the “collagen constriction by fibroblasts” value was “did not change”. Further, the fibroblast numbers result in assay [5] (LIF-stimulated cultures versus control) is recorded as “no differences”. For the same substance, the “expression of differentiation marker carbonic anhydrase II” value in assay [6] (LIF only added to base medium) is on record as “did not express”. Further, the “percentage of goblet cells among total cells and per area” value in assay [6] (LIF, FIG. 3A) is “lack of stimulation”. Further, the “relative numbers of goblet cells (of all enterocytes)” value in assay [6] (LIF-cultured, p=0.81 versus control base medium) was 3.8±3.5%. Moreover, in assay [6] (LIF-stimulated samples, p=0.13 versus samples without LIF), the “numbers of goblet cells per area” value is on record as 2.25±1.66. In assay [6] (in the presence of LIF), the “relative numbers of enteroendocrine cells” value is “significantly decreased; also recorded: decrease”.
With “endothelin-3 (CTCFTYKDKECVYYCHLDIIW; ends and bridges not checked; cysteine pairing not given here; UniProt P14138 97-117, looked up) [ET-3, endothelin-3 (Peninsula Labs)]”, in assay [1], the epithelial cell proliferation entry is reported as “not supported”.
Regarding autocrine motility factor [AMF], in assay [1], the epithelial cell proliferation result was “not supported”.
Same read-out and setting: the value for insulin was “not supported”.
